Measured values taken from patent publication US7994140B2, “Classes of compounds that interact with GPCRs” (Alchemia Limited, priority 2002, dated 2011).

Molecular target: T1, MC4 (Homo sapiens, UniProt P32245)
T1 construct: purchased Perkin Elmer BioSignal; host or cells: HEK 293
Test: GPCR radioligand binding (RLB) assay, melanocortin MC4, [125I]NDP-αMSH
Conditions: for MC4 inhibition at 10 micromolar: 10 micromolar compound, recombinant human receptor membranes (HEK 293)
How it was run: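 Membranes from HEK 293 cells expressing the recombinant human receptor were equilibrated with [125I]SST-14 (SST5) or [125I]NDP-αMSH (MC4), then compound added for an optimized incubation. Bound ligand separated by filtration on PEI-coated glass fiber and counted by liquid scintillation.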

[1] = 4.0 Micromolar, Example Library 10
[2] = 4.0 Micromolar, Example Library 11
[3] = 4.0 Micromolar, Example Library 12
[4] = 4.0 Micromolar, Example Library 13

T1 sequence (P32245 whole entry): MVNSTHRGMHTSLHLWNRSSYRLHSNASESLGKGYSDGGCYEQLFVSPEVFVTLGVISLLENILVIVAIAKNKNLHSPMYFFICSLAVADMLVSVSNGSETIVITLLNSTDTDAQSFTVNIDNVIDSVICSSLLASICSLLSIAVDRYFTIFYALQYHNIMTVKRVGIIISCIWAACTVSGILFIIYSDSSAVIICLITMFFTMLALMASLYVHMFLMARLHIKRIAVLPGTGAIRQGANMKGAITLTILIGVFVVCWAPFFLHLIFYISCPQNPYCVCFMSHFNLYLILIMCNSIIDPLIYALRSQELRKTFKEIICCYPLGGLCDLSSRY

NCCCC(=O)N[C@H]1C(OCc2ccc(Cl)cc2)O[C@H](COCc2ccccc2)[C@@H](O)[C@@H]1OCc1ccc(Cl)cc1 (stereo partly drawn) [Compound 387]
MC4 Inhibition at 4.0 Micromolar [1]: + (Indicates inhibition greater than . . . 50%)

NCCCC(=O)NC1C(OCc2ccc3ccccc3c2)OC(COCc2ccccc2)C(O)C1OCc1ccc2ccccc2c1 (stereo not drawn) [Compound 426]
MC4 Inhibition at 4.0 Micromolar [2]: + (Indicates inhibition greater than . . . 50%)

NCC(=O)N[C@H]1C(OCc2ccc(Cl)cc2)O[C@H](COCc2ccc(Cl)cc2)[C@@H](O)[C@@H]1OCc1ccc2ccccc2c1 (stereo partly drawn) [Compound 382]
MC4 Inhibition at 4.0 Micromolar [1]: + (Indicates inhibition greater than . . . 50%)

N=C(N)NCCC(=O)N[C@H]1C(OCc2ccccc2)O[C@H](COCc2ccc3ccccc3c2)[C@@H](O)[C@@H]1OCc1ccc(-c2ccccc2)cc1 (stereo partly drawn) [Compound 457]
MC4 Inhibition at 4.0 Micromolar [3]: + (Indicates inhibition greater than . . . 50%)

COC1C(O)C(COCc2ccc(Cl)cc2)OC(OCc2ccc3ccccc3c2)C1NC(=O)CCCNC(=N)N (stereo not drawn) [Compound 78]
MC4 inhibition at 10 micromolar: + (Indicates inhibition greater than . . . 50%)

NCCCC(=O)N[C@H]1C(OCc2ccc3ccccc3c2)O[C@H](COCc2ccc(Cl)cc2)[C@@H](O)[C@@H]1OCc1ccccc1 (stereo partly drawn) [Compound 375]
MC4 Inhibition at 4.0 Micromolar [1]: + (Indicates inhibition greater than . . . 50%)

CO[C@H]1[C@H](O)[C@@H](COCc2ccc3ccccc3c2)OC(OCc2ccc(-c3ccccc3)cc2)[C@@H]1NC(=O)CNC(=N)N (stereo partly drawn) [Compound 59]
MC4 inhibition at 10 micromolar: + (Indicates inhibition greater than . . . 50%)

NCCCC(=O)N[C@H]1C(OCc2ccc3ccccc3c2)O[C@H](COCc2ccc3ccccc3c2)[C@@H](O)[C@@H]1OCc1ccc(Cl)cc1 (single isomer, unassigned) [Compound 366]
MC4 Inhibition at 4.0 Micromolar [1]: + (Indicates inhibition greater than . . . 50%)

COC1C(O)C(COCc2ccc(-c3ccccc3)cc2)OC(OCc2ccc3ccccc3c2)C1NC(=O)CNC(=N)N (stereo not drawn) [Compound 67]
MC4 inhibition at 10 micromolar: + (Indicates inhibition greater than . . . 50%)

NCCC(=O)NC1C(OCc2ccccc2)OC(COCc2ccc3ccccc3c2)C(O)C1OCc1ccccc1 (stereo not drawn) [Compound 403]
MC4 Inhibition at 4.0 Micromolar [2]: + (Indicates inhibition greater than . . . 50%)

CSC1O[C@H](COCc2ccc(Cl)cc2)[C@@H](O)[C@H](OCc2cccc(N)c2)[C@H]1NC(=O)CCC1CNc2ccccc21 (stereo partly drawn) [Compound 325]
MC4 inhibition at 10 micromolar: + (Indicates inhibition greater than . . . 50%)

N=C(N)NCCC(=O)N[C@H]1C(OCc2ccc(-c3ccccc3)cc2)O[C@H](COCc2ccc(Cl)cc2)[C@@H](O)[C@H]1OCc1ccc(Cl)cc1 (stereo partly drawn) [Compound 472]
MC4 Inhibition at 4.0 Micromolar [4]: + (Indicates inhibition greater than . . . 50%)

N=C(N)NCC(=O)N[C@H]1C(OCc2ccccc2)O[C@H](COCc2ccc(Cl)cc2)[C@@H](O)[C@@H]1OCc1ccc(Cl)cc1 (stereo partly drawn) [Compound 435]
MC4 Inhibition at 4.0 Micromolar [3]: + (Indicates inhibition greater than . . . 50%)

COC1C(O)C(COCc2ccc3ccccc3c2)OC(OCc2ccc3ccccc3c2)C1NC(=O)CCCNC(=N)N (stereo not drawn) [Compound 74]
MC4 inhibition at 10 micromolar: + (Indicates inhibition greater than . . . 50%)

COC1C(O)C(COCc2ccc3ccccc3c2)OC(OCc2ccc(Cl)cc2)C1NC(=O)C1CCN(C(=N)N)CC1 (stereo not drawn) [Compound 348]
MC4 Inhibition at 4.0 Micromolar (4.0 micromolar compound): + (Indicates inhibition greater than . . . 50%)

N=C(N)NCC(=O)N[C@H]1C(OCc2ccc(Cl)cc2)O[C@H](COCc2ccccc2)[C@@H](O)[C@H]1OCc1ccc(Cl)cc1 (stereo partly drawn) [Compound 480]
MC4 Inhibition at 4.0 Micromolar [4]: + (Indicates inhibition greater than . . . 50%)

NCCCC(=O)N[C@H]1C(OCc2ccc(Cl)cc2)O[C@H](COCc2ccc(Cl)cc2)[C@@H](O)[C@@H]1OCc1ccc(Cl)cc1 (stereo partly drawn) [Compound 388]
MC4 Inhibition at 4.0 Micromolar [1]: + (Indicates inhibition greater than . . . 50%)

N=C(N)NCCC(=O)N[C@H]1C(OCc2ccccc2)O[C@H](COCc2ccccc2)[C@@H](O)[C@@H]1OCc1ccc(Cl)cc1 (stereo partly drawn) [Compound 448]
MC4 Inhibition at 4.0 Micromolar [3]: + (Indicates inhibition greater than . . . 50%)

NCCCC(=O)NC1C(OCc2ccc3ccccc3c2)OC(COCc2ccc3ccccc3c2)C(O)C1OCc1ccc2ccccc2c1 (stereo not drawn) [Compound 425]
MC4 Inhibition at 4.0 Micromolar [2]: + (Indicates inhibition greater than . . . 50%)

N=C(N)NCCC(=O)N[C@H]1C(OCc2ccccc2)O[C@H](COCCc2ccccc2)[C@@H](O)[C@@H]1OCc1ccc(-c2ccccc2)cc1 (stereo partly drawn) [Compound 462]
MC4 Inhibition at 4.0 Micromolar [3]: + (Indicates inhibition greater than . . . 50%)

N=C(N)NCC(=O)NC1C(OCc2ccc(Cl)cc2)OC(COCc2ccc(Cl)cc2)C(O)C1OCc1ccc(Cl)cc1 (stereo not drawn) [Compound 481]
MC4 Inhibition at 4.0 Micromolar [4]: + (Indicates inhibition greater than . . . 50%)

NCC(=O)N[C@H]1C(OCc2ccc(Cl)cc2)O[C@H](COCc2ccccc2)[C@@H](O)[C@@H]1OCc1ccccc1 (stereo partly drawn) [Compound 384]
MC4 Inhibition at 4.0 Micromolar [1]: + (Indicates inhibition greater than . . . 50%)

NCCC(=O)NC1C(OCc2ccc3ccccc3c2)OC(COCc2ccc(Cl)cc2)C(O)C1OCc1ccc2ccccc2c1 (stereo not drawn) [Compound 418]
MC4 Inhibition at 4.0 Micromolar [2]: + (Indicates inhibition greater than . . . 50%)

N=C(N)NCCC(=O)NC1C(OCc2ccc(Cl)cc2)OC(COCc2ccc3ccccc3c2)C(O)C1OCc1ccc(Cl)cc1 (stereo not drawn) [Compound 488]
MC4 Inhibition at 4.0 Micromolar [4]: + (Indicates inhibition greater than . . . 50%)

N=C(N)NCCC(=O)NC1C(OCc2ccc(Cl)cc2)OC(COCc2ccccc2)C(O)C1OCc1ccc2ccccc2c1 (stereo not drawn) [Compound 492]
MC4 Inhibition at 4.0 Micromolar [4]: + (Indicates inhibition greater than . . . 50%)

NCCCC(=O)NC1C(OCc2ccc3ccccc3c2)OC(COCc2ccc(Cl)cc2)C(O)C1OCc1ccccc1 (stereo not drawn) [Compound 430]
MC4 Inhibition at 4.0 Micromolar [2]: + (Indicates inhibition greater than . . . 50%)

NCCCC(=O)N[C@H]1C(OCc2ccc3ccccc3c2)O[C@H](COCc2ccc(Cl)cc2)[C@@H](O)[C@@H]1OCc1ccc2ccccc2c1 (single isomer, unassigned) [Compound 371]
MC4 Inhibition at 4.0 Micromolar [1]: + (Indicates inhibition greater than . . . 50%)

CSC1O[C@H](COCc2cccc(N)c2)[C@@H](O)[C@H](OCc2ccccc2)[C@H]1NC(=O)Cc1ccccc1 (stereo partly drawn) [Compound 334]
MC4 inhibition at 10 micromolar: + (Indicates inhibition greater than . . . 50%)

NCCC(=O)NC1C(OCc2ccccc2)OC(COCc2ccc(Cl)cc2)C(O)C1OCc1ccccc1 (stereo not drawn) [Compound 405]
MC4 Inhibition at 4.0 Micromolar [2]: + (Indicates inhibition greater than . . . 50%)

N=C(N)NCC(=O)N[C@H]1C(OCc2ccccc2)O[C@H](COCc2ccccc2)[C@@H](O)[C@@H]1OCc1ccc(Cl)cc1 (stereo partly drawn) [Compound 433]
MC4 Inhibition at 4.0 Micromolar [3]: + (Indicates inhibition greater than . . . 50%)

N=C(N)NCCC(=O)N[C@H]1C(OCc2ccc(-c3ccccc3)cc2)O[C@H](COCc2ccc(Cl)cc2)[C@@H](O)[C@H]1OCc1ccc(-c2ccccc2)cc1 (stereo partly drawn) [Compound 478]
MC4 Inhibition at 4.0 Micromolar [4]: + (Indicates inhibition greater than . . . 50%)

NCCCC(=O)N[C@H]1C(OCc2ccc3ccccc3c2)O[C@H](COCc2ccccc2)[C@@H](O)[C@@H]1OCc1ccccc1 (stereo partly drawn) [Compound 374]
MC4 Inhibition at 4.0 Micromolar [1]: + (Indicates inhibition greater than . . . 50%)

NCCCC(=O)N[C@H]1C(OCc2ccc(Cl)cc2)O[C@H](COCc2ccc(Cl)cc2)[C@@H](O)[C@@H]1OCc1ccc2ccccc2c1 (single isomer, unassigned) [Compound 394]
MC4 Inhibition at 4.0 Micromolar [1]: + (Indicates inhibition greater than . . . 50%)

NCCCC(=O)NC1C(OCc2ccccc2)OC(COCc2ccc3ccccc3c2)C(O)C1OCc1ccc(Cl)cc1 (stereo not drawn) [Compound 406]
MC4 Inhibition at 4.0 Micromolar [2]: + (Indicates inhibition greater than . . . 50%)

COC1C(O)C(COCc2ccc(Cl)cc2)OC(OCc2ccc(-c3ccccc3)cc2)C1NC(=O)CNC(=N)N (stereo not drawn) [Compound 63]
MC4 inhibition at 10 micromolar: + (Indicates inhibition greater than . . . 50%)

N=C(N)NCC(=O)N[C@H]1C(OCc2ccccc2)O[C@H](COCc2ccccc2)[C@@H](O)[C@@H]1OCc1ccc(-c2ccccc2)cc1 (stereo partly drawn) [Compound 443]
MC4 Inhibition at 4.0 Micromolar [3]: + (Indicates inhibition greater than . . . 50%)

NCCCC(=O)N[C@H]1C(OCc2ccc(Cl)cc2)O[C@H](COCc2ccccc2)[C@@H](O)[C@@H]1OCc1ccc2ccccc2c1 (single isomer, unassigned) [Compound 392]
MC4 Inhibition at 4.0 Micromolar [1]: + (Indicates inhibition greater than . . . 50%)

NCCC(=O)NC1C(OCc2ccc3ccccc3c2)OC(COCc2ccc3ccccc3c2)C(O)C1OCc1ccc(Cl)cc1 (stereo not drawn) [Compound 413]
MC4 Inhibition at 4.0 Micromolar [2]: + (Indicates inhibition greater than . . . 50%)

N=C(N)NCCC(=O)N[C@H]1C(OCc2ccccc2)O[C@H](COCc2ccccc2)[C@@H](O)[C@@H]1OCc1ccc(-c2ccccc2)cc1 (stereo partly drawn) [Compound 459]
MC4 Inhibition at 4.0 Micromolar [3]: + (Indicates inhibition greater than . . . 50%)

NCCC(=O)NC1C(OCc2ccccc2)OC(COCc2ccccc2)C(O)C1OCc1ccccc1 (stereo not drawn) [Compound 404]
MC4 Inhibition at 4.0 Micromolar [2]: + (Indicates inhibition greater than . . . 50%)

CSC1O[C@H](COCc2ccccc2)[C@@H](O)[C@H](OCc2cccc(N)c2)[C@H]1NC(=O)Cc1ccccc1 (stereo partly drawn) [Compound 317]
MC4 inhibition at 10 micromolar: + (Indicates inhibition greater than . . . 50%)

CO[C@H]1[C@H](O)[C@@H](COCc2cccc(O)c2)OC(OCc2ccc(Cl)cc2)[C@@H]1NC(=O)CCNC(=N)N (stereo partly drawn) [Compound 110]
MC4 inhibition at 10 micromolar: + (Indicates inhibition greater than . . . 50%)

COC1C(O)C(COCc2ccc3ccccc3c2)OC(OCc2ccc(Cl)cc2)C1NC(=O)CNC(=N)N (stereo not drawn) [Compound 345]
MC4 Inhibition at 4.0 Micromolar (4.0 micromolar compound): + (Indicates inhibition greater than . . . 50%)

COC[C@H]1OC(OCc2ccccc2)[C@H](NC(=O)CNC(=N)N)[C@@H](OCc2ccc(-c3ccccc3)cc2)[C@@H]1O (stereo partly drawn) [Compound 5]
MC4 inhibition at 10 micromolar: + (Indicates inhibition greater than . . . 50%)

N=C(N)NCCC(=O)NC1C(OCc2ccc(Cl)cc2)OC(COCc2ccccc2)C(O)C1OCc1ccc(-c2ccccc2)cc1 (stereo not drawn) [Compound 495]
MC4 Inhibition at 4.0 Micromolar [4]: + (Indicates inhibition greater than . . . 50%)
